Laboratory results reported in PubChem BioAssay AID2060513 (Molecular Pharmacology Branch, DTP, NCI, 2025).

Tested on: 299254-011-R-J1-PDC complex spheroids viability
Assay: Anticancer human tumor 299254-011-R-J1-PDC patient-derived melanoma cell line growth inhibition [GQUAD]
Settings: for IC50: curve of first compound; for viability, T/C: stronger effect = lower value
Outline: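 Multi-cell-type spheroids of tumor cells with HUVEC and mesenchymal stem cells, treated with drug combinations. Concentrations descend in half-log steps from near clinical Cmax, or from 10 microM where Cmax is unknown; viability read-out.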

[1] = second compound 0.0316 µM, first compound 0.0316 µM
[2] = second compound 0.0316 µM, first compound 0.1 µM
[3] = second compound 0.0316 µM, first compound 0.316 µM
[4] = second compound 0.0316 µM, first compound 1 µM
[5] = second compound 0.0316 µM, first compound 3.16 µM
[6] = second compound 0.0316 µM, first compound 10 µM
[7] = second compound 0.1 µM, first compound 0.0316 µM
[8] = second compound 0.1 µM, first compound 0.1 µM
[9] = second compound 0.1 µM, first compound 0.316 µM
[10] = second compound 0.1 µM, first compound 1 µM
[11] = second compound 0.1 µM, first compound 3.16 µM
[12] = second compound 0.1 µM, first compound 10 µM
[13] = second compound 0.316 µM, first compound 0.0316 µM
[14] = second compound 0.316 µM, first compound 0.1 µM
[15] = second compound 0.316 µM, first compound 0.316 µM
[16] = second compound 0.316 µM, first compound 1 µM
[17] = second compound 0.316 µM, first compound 3.16 µM
[18] = second compound 0.316 µM, first compound 10 µM
[19] = second compound 1 µM, first compound 0.0316 µM
[20] = second compound 1 µM, first compound 0.1 µM
[21] = second compound 1 µM, first compound 0.316 µM
[22] = second compound 1 µM, first compound 1 µM
[23] = second compound 1 µM, first compound 3.16 µM
[24] = second compound 1 µM, first compound 10 µM
[25] = second compound 3.16 µM, first compound 0.0316 µM
[26] = second compound 3.16 µM, first compound 0.1 µM
[27] = second compound 3.16 µM, first compound 0.316 µM
[28] = second compound 3.16 µM, first compound 1 µM
[29] = second compound 3.16 µM, first compound 3.16 µM
[30] = second compound 3.16 µM, first compound 10 µM
[31] = second compound 10 µM, first compound 0.0316 µM
[32] = second compound 10 µM, first compound 0.1 µM
[33] = second compound 10 µM, first compound 0.316 µM
[34] = second compound 10 µM, first compound 1 µM
[35] = second compound 10 µM, first compound 3.16 µM
[36] = second compound 10 µM, first compound 10 µM
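Note: spheroids exposed to the agents for seven days before readout.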
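Throughout, for viability, T/C: percent viability relative to DMSO vehicle control wells = 100%.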

`CC(C)(O)C1CCC(Nc2ccc3ncc(-c4cccc(C(F)(F)F)c4)n3n2)CC1` (stereo unspecified) + Cc1[nH]c2ccc(F)cc2c1-c1nc2c3cccnc3c3ncccc3c2[nH]1 gave an IC50 (second compound 0.0316 µM) of over 10000 nM, an IC50 (second compound 0.1 µM) of over 10000 nM and an IC50 (second compound 0.316 µM) of over 10000 nM. The IC50 (second compound 1 µM) was over 10000 nM, the IC50 (second compound 3.16 µM) was over 10000 nM and the IC50 (second compound 10 µM) was 2550 nM. It also gave a viability, T/C [1] of 112%, a viability, T/C [2] of 109% and a viability, T/C [3] of 124%. The viability, T/C [4] was 97.2%, the viability, T/C [5] was 70.1% and the viability, T/C [6] was 111%. The viability, T/C [7] was 115%, the viability, T/C [8] was 98.2% and the viability, T/C [9] was 93.5%. The viability, T/C [10] was 103%, the viability, T/C [11] was 73.4% and the viability, T/C [12] was 111%. For the same compound, the viability, T/C [13] was 108%, the viability, T/C [14] was 117% and the viability, T/C [15] was 115%. It also gave a viability, T/C [16] of 109%, a viability, T/C [17] of 82.7% and a viability, T/C [18] of 99.4%. For the same compound, the viability, T/C [19] was 85.2%, the viability, T/C [20] was 109% and the viability, T/C [21] was 110%. The viability, T/C [22] was 104%, the viability, T/C [23] was 68.2% and the viability, T/C [24] was 105%. For the same compound, the viability, T/C [25] was 93%, the viability, T/C [26] was 102% and the viability, T/C [27] was 97%. For the same compound, the viability, T/C [28] was 88%, the viability, T/C [29] was 51% and the viability, T/C [30] was 65.3%. It also gave a viability, T/C [31] of 105%, a viability, T/C [32] of 95.9% and a viability, T/C [33] of 103%. For the same compound, the viability, T/C [34] was 88%, the viability, T/C [35] was 35.1% and the viability, T/C [36] was 47.6%.
`C#Cc1c(F)ccc2cc(O)cc(-c3ncc4c(N5CC6CCC(C5)N6)nc(OCC56CCCN5CC(F)C6)nc4c3F)c12` (stereo unspecified) + Cc1cnc(CNC(=O)c2c(=O)c3ccc(N4CCCN(C)CC4)nc3n3c2sc2ccccc23)cn1 gave an IC50 (second compound 0.0316 µM) of over 10000 nM, an IC50 (second compound 0.1 µM) of over 10000 nM and an IC50 (second compound 0.316 µM) of over 10000 nM. The IC50 (second compound 1 µM) was over 10000 nM, the IC50 (second compound 3.16 µM) was over 10000 nM and the IC50 (second compound 10 µM) was under 31.6 nM. It also gave a viability, T/C [1] of 108%, a viability, T/C [2] of 87.8% and a viability, T/C [3] of 102%. For the same compound, the viability, T/C [4] was 93%, the viability, T/C [5] was 96.2% and the viability, T/C [6] was 79.8%. For the same compound, the viability, T/C [7] was 123%, the viability, T/C [8] was 99.2% and the viability, T/C [9] was 122%. The viability, T/C [10] was 91.7%, the viability, T/C [11] was 103% and the viability, T/C [12] was 80.5%. For the same compound, the viability, T/C [13] was 113%, the viability, T/C [14] was 115% and the viability, T/C [15] was 117%. For the same compound, the viability, T/C [16] was 87.1%, the viability, T/C [17] was 91.1% and the viability, T/C [18] was 74.1%. The viability, T/C [19] was 81%, the viability, T/C [20] was 105% and the viability, T/C [21] was 94.4%. The viability, T/C [22] was 102%, the viability, T/C [23] was 83.1% and the viability, T/C [24] was 85.6%. It also gave a viability, T/C [25] of 74.8%, a viability, T/C [26] of 103% and a viability, T/C [27] of 99.8%. The viability, T/C [28] was 85.8%, the viability, T/C [29] was 83.4% and the viability, T/C [30] was 88.6%. The viability, T/C [31] was 50.6%, the viability, T/C [32] was 18.7% and the viability, T/C [33] was 43.6%. The viability, T/C [34] was 33.4%, the viability, T/C [35] was 51.3% and the viability, T/C [36] was 0.39%.
With `Cc1[nH]c2ccccc2c1CCNCc1ccc(/C=C/C(=O)NO)cc1` + Cc1[nH]c2ccc(F)cc2c1-c1nc2c3cccnc3c3ncccc3c2[nH]1 the IC50 (second compound 0.0316 µM) was 123 nM, the IC50 (second compound 0.1 µM) was 128 nM and the IC50 (second compound 0.316 µM) was 198 nM. It also gave an IC50 (second compound 1 µM) of 187 nM, an IC50 (second compound 3.16 µM) of 181 nM and an IC50 (second compound 10 µM) of 163 nM. The viability, T/C (second compound 0.0316 µM, first compound 0.000999 µM) was 95.9%, the viability, T/C (second compound 0.0316 µM, first compound 0.00316 µM) was 81.8% and the viability, T/C (second compound 0.0316 µM, first compound 0.00999 µM) was 92.5%. The viability, T/C [1] was 81.3%, the viability, T/C (second compound 0.0316 µM, first compound 0.0999 µM) was 56.3% and the viability, T/C [3] was 21.5%. For the same compound, the viability, T/C (second compound 0.1 µM, first compound 0.000999 µM) was 95.3%, the viability, T/C (second compound 0.1 µM, first compound 0.00316 µM) was 119% and the viability, T/C (second compound 0.1 µM, first compound 0.00999 µM) was 81.8%. It also gave a viability, T/C [7] of 71.1%, a viability, T/C (second compound 0.1 µM, first compound 0.0999 µM) of 64.5% and a viability, T/C [9] of 22%. It also gave a viability, T/C (second compound 0.316 µM, first compound 0.000999 µM) of 88.1%, a viability, T/C (second compound 0.316 µM, first compound 0.00316 µM) of 99.4% and a viability, T/C (second compound 0.316 µM, first compound 0.00999 µM) of 95.8%. It also gave a viability, T/C [13] of 77.6%, a viability, T/C (second compound 0.316 µM, first compound 0.0999 µM) of 86.3% and a viability, T/C [15] of 25.5%. The viability, T/C (second compound 1 µM, first compound 0.000999 µM) was 96.1%, the viability, T/C (second compound 1 µM, first compound 0.00316 µM) was 87.4% and the viability, T/C (second compound 1 µM, first compound 0.00999 µM) was 93.7%. It also gave a viability, T/C [19] of 89%, a viability, T/C (second compound 1 µM, first compound 0.0999 µM) of 81.8% and a viability, T/C [21] of 23.6%. For the same compound, the viability, T/C (second compound 3.16 µM, first compound 0.000999 µM) was 93.8%, the viability, T/C (second compound 3.16 µM, first compound 0.00316 µM) was 79.2% and the viability, T/C (second compound 3.16 µM, first compound 0.00999 µM) was 86.6%. It also gave a viability, T/C [25] of 85.8%, a viability, T/C (second compound 3.16 µM, first compound 0.0999 µM) of 74.8% and a viability, T/C [27] of 26.7%. It also gave a viability, T/C (second compound 10 µM, first compound 0.000999 µM) of 78.2%, a viability, T/C (second compound 10 µM, first compound 0.00316 µM) of 105% and a viability, T/C (second compound 10 µM, first compound 0.00999 µM) of 94.6%. The viability, T/C [31] was 84.1%, the viability, T/C (second compound 10 µM, first compound 0.0999 µM) was 74.8% and the viability, T/C [33] was 17.9%.
